Measurements taken from PubChem BioAssay AID1918934 (Molecular Pharmacology Branch, DTP, NCI, 2023).

Test system: 292921-168-R-J2-PDC complex spheroid viability
Assay: Anticancer human tumor 292921-168-R-J2-PDC patient-derived pancreatic carcinoma cell line growth inhibition
Details: for IC50: curve of first compound; for viability, T/C: stronger effect = lower value
Summary of the method: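 Drug combinations with the LSD1 inhibitor iadademstat tested on tumor cells co-cultured as spheroids with endothelial cells and mesenchymal stem cells. Concentrations descended in half-log increments from clinical Cmax or 10 microM.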

[1] = second compound 0.1 µM, first compound 0.00316 µM
[2] = second compound 0.1 µM, first compound 0.01 µM
[3] = second compound 0.1 µM, first compound 0.0316 µM
[4] = second compound 0.1 µM, first compound 0.1 µM
[5] = second compound 0.316 µM, first compound 0.00316 µM
[6] = second compound 0.316 µM, first compound 0.01 µM
[7] = second compound 0.316 µM, first compound 0.0316 µM
[8] = second compound 0.316 µM, first compound 0.1 µM
[9] = second compound 1 µM, first compound 0.00316 µM
[10] = second compound 1 µM, first compound 0.01 µM
[11] = second compound 1 µM, first compound 0.0316 µM
[12] = second compound 1 µM, first compound 0.1 µM
[13] = second compound 3.16 µM, first compound 0.00316 µM
[14] = second compound 3.16 µM, first compound 0.01 µM
[15] = second compound 3.16 µM, first compound 0.0316 µM
[16] = second compound 3.16 µM, first compound 0.1 µM
[17] = second compound 10 µM, first compound 0.00316 µM
[18] = second compound 10 µM, first compound 0.01 µM
[19] = second compound 10 µM, first compound 0.0316 µM
[20] = second compound 10 µM, first compound 0.1 µM
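Further: seven day compound exposure before luminescent viability read.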
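Wherever viability, T/C is given: 100% = DMSO vehicle control wells.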

Compound: CC[C@@]1(O)C(=O)OCc2c1cc1n(c2=O)Cc2cc3c(CN(C)C)c(O)ccc3nc2-1 + NC1CCC(NC2CC2c2ccccc2)CC1
- IC50 (second compound 0.1 µM): 2.11 nM
- IC50 (second compound 0.316 µM): 1.65 nM
- IC50 (second compound 1 µM): 1.58 nM
- IC50 (second compound 3.16 µM): 1.07 nM
- IC50 (second compound 10 µM): 0.869 nM
- viability, T/C (second compound 0.1 µM, first compound 0.000316 µM): 64.5%
- viability, T/C (second compound 0.1 µM, first compound 0.001 µM): 60.2%
- viability, T/C [1]: 44.6%
- viability, T/C [2]: 19.7%
- viability, T/C [3]: 8.14%
- viability, T/C [4]: 4.05%
- viability, T/C (second compound 0.316 µM, first compound 0.000316 µM): 61.4%
- viability, T/C (second compound 0.316 µM, first compound 0.001 µM): 61%
- viability, T/C [5]: 37.9%
- viability, T/C [6]: 18.5%
- viability, T/C [7]: 8.83%
- viability, T/C [8]: 4.07%
- viability, T/C (second compound 1 µM, first compound 0.000316 µM): 61.2%
- viability, T/C (second compound 1 µM, first compound 0.001 µM): 56.4%
- viability, T/C [9]: 40.9%
- viability, T/C [10]: 19.4%
- viability, T/C [11]: 10.6%
- viability, T/C [12]: 4.35%
- viability, T/C (second compound 3.16 µM, first compound 0.000316 µM): 54.9%
- viability, T/C (second compound 3.16 µM, first compound 0.001 µM): 50.8%
- viability, T/C [13]: 38.2%
- viability, T/C [14]: 18.5%
- viability, T/C [15]: 8.6%
- viability, T/C [16]: 3.74%
- viability, T/C (second compound 10 µM, first compound 0.000316 µM): 51.4%
- viability, T/C (second compound 10 µM, first compound 0.001 µM): 50.9%
- viability, T/C [17]: 36.9%
- viability, T/C [18]: 15.6%
- viability, T/C [19]: 8.03%
- viability, T/C [20]: 3.69%

Compound: COc1cc(C2c3cc4c(cc3C(OC3OC5COC(C)OC5C(O)C3O)C3COC(=O)C23)OCO4)cc(OC)c1O (stereo not given) + NC1CCC(NC2CC2c2ccccc2)CC1
- IC50 (second compound 0.1 µM): 23.8 nM
- IC50 (second compound 0.316 µM): 24.2 nM
- IC50 (second compound 1 µM): 16.3 nM
- IC50 (second compound 3.16 µM): 15.3 nM
- IC50 (second compound 10 µM): 9.52 nM
- viability, T/C (second compound 0.1 µM, first compound 0.00949 µM): 62.7%
- viability, T/C (second compound 0.1 µM, first compound 0.03 µM): 48.7%
- viability, T/C (second compound 0.1 µM, first compound 0.0949 µM): 27.9%
- viability, T/C (second compound 0.1 µM, first compound 0.3 µM): 20.8%
- viability, T/C (second compound 0.1 µM, first compound 0.949 µM): 11.2%
- viability, T/C (second compound 0.1 µM, first compound 3 µM): 5.3%
- viability, T/C (second compound 0.316 µM, first compound 0.00949 µM): 67.6%
- viability, T/C (second compound 0.316 µM, first compound 0.03 µM): 45.2%
- viability, T/C (second compound 0.316 µM, first compound 0.0949 µM): 29.6%
- viability, T/C (second compound 0.316 µM, first compound 0.3 µM): 21.5%
- viability, T/C (second compound 0.316 µM, first compound 0.949 µM): 8.7%
- viability, T/C (second compound 0.316 µM, first compound 3 µM): 6.82%
- viability, T/C (second compound 1 µM, first compound 0.00949 µM): 56%
- viability, T/C (second compound 1 µM, first compound 0.03 µM): 42.9%
- viability, T/C (second compound 1 µM, first compound 0.0949 µM): 30.5%
- viability, T/C (second compound 1 µM, first compound 0.3 µM): 20%
- viability, T/C (second compound 1 µM, first compound 0.949 µM): 8.76%
- viability, T/C (second compound 1 µM, first compound 3 µM): 5.56%
- viability, T/C (second compound 3.16 µM, first compound 0.00949 µM): 56.1%
- viability, T/C (second compound 3.16 µM, first compound 0.03 µM): 40.5%
- viability, T/C (second compound 3.16 µM, first compound 0.0949 µM): 30.7%
- viability, T/C (second compound 3.16 µM, first compound 0.3 µM): 19%
- viability, T/C (second compound 3.16 µM, first compound 0.949 µM): 8.55%
- viability, T/C (second compound 3.16 µM, first compound 3 µM): 7.39%
- viability, T/C (second compound 10 µM, first compound 0.00949 µM): 50.1%
- viability, T/C (second compound 10 µM, first compound 0.03 µM): 38.8%
- viability, T/C (second compound 10 µM, first compound 0.0949 µM): 27.3%
- viability, T/C (second compound 10 µM, first compound 0.3 µM): 16.3%
- viability, T/C (second compound 10 µM, first compound 0.949 µM): 9.55%
- viability, T/C (second compound 10 µM, first compound 3 µM): 6.68%

Compound: Nc1ncn(C2CC(O)C(CO)O2)c(=O)n1 (stereo not given) + NC1CCC(NC2CC2c2ccccc2)CC1
- IC50 (second compound 0.1 µM): 279 nM
- IC50 (second compound 0.316 µM): 103 nM
- IC50 (second compound 1 µM): 64 nM
- IC50 (second compound 3.16 µM): 105 nM
- IC50 (second compound 10 µM): 40.5 nM
- viability, T/C [1]: 63.8%
- viability, T/C [2]: 70.5%
- viability, T/C [3]: 62.2%
- viability, T/C [4]: 49.6%
- viability, T/C (second compound 0.1 µM, first compound 0.316 µM): 50.2%
- viability, T/C (second compound 0.1 µM, first compound 1 µM): 44.2%
- viability, T/C [5]: 67%
- viability, T/C [6]: 69%
- viability, T/C [7]: 61.5%
- viability, T/C [8]: 49.8%
- viability, T/C (second compound 0.316 µM, first compound 0.316 µM): 46.6%
- viability, T/C (second compound 0.316 µM, first compound 1 µM): 42.6%
- viability, T/C [9]: 59.7%
- viability, T/C [10]: 58.6%
- viability, T/C [11]: 52.8%
- viability, T/C [12]: 45.2%
- viability, T/C (second compound 1 µM, first compound 0.316 µM): 47%
- viability, T/C (second compound 1 µM, first compound 1 µM): 42.7%
- viability, T/C [13]: 54.8%
- viability, T/C [14]: 53.9%
- viability, T/C [15]: 55.1%
- viability, T/C [16]: 52.3%
- viability, T/C (second compound 3.16 µM, first compound 0.316 µM): 41.3%
- viability, T/C (second compound 3.16 µM, first compound 1 µM): 35.6%
- viability, T/C [17]: 53.1%
- viability, T/C [18]: 57.4%
- viability, T/C [19]: 49.3%
- viability, T/C [20]: 45.8%
- viability, T/C (second compound 10 µM, first compound 0.316 µM): 36%
- viability, T/C (second compound 10 µM, first compound 1 µM): 35.4%
